Biological target: YFP-HA-βlac-DAT (Homo sapiens, UniProt Q01959)
Assay: β-lactamase (βlac) surface expression assay
Type: cell-based
Details: HEK293, read-out: EMax (%), WT DAT surface expression, HEK cells expressing YFP-HA-βlac-DAT, overnight (16 h) incubation, up to 100 μM, normalized to vehicle; assumed effective EMax
Protocol: The βlac surface expression assay was performed by following the method outlined in [Lam et al. (2013)] and [Beerepoot et al. (2015], [2016)]. The assay substrate nitrocefin (BD biosciences) was dissolved in dimethyl sulfoxide (DMSO) at a concentration of 10 mM and frozen at −80°C. Immediately before use, it was thawed and diluted to a final concentration of 100 μM in phosphate buffered saline (PBS). Cells (1 × 10^5/well) were seeded into a poly-D-lysine-coated 48-well plate and incubated for 24 h, prior to drug treatment. Drugs were added to individual wells at varying concentrations and incubated for 16 h. Subsequently, the media was aspirated, and the cells were washed twice with PBS. After removal of the final PBS wash, 200 μL of the nitrocefin solution was added to each well and the absorbance was immediately read. The EPOCH microplate spectrophotometer (BioTek) was used to measure absorbance (486 nm) for each well every minute for 30 min. The rate of reaction (slope of the curve) was used as the readout for the assay ([Beerepoot et al., 2015]). To determine suitable concentration ranges for each drug, they were dissolved in PBS or DMSO at the highest concentration possible. From here, the solutions were serial diluted 1/10 to yield 8 different concentrations. βLAC cells were then treated with the varying drug concentrations and cell viability was recorded using light microscopy. For additional measure, nitrocefin was added and the absorbance was read. For certain cases, Trypan Blue was used to quantitatively differentiate increased cell death from reduced cell division. […] Five or six doses were generally used in subsequent dosing experiments, starting at the highest non-toxic concentration.
Data analysis was performed using GraphPad Prism (GraphPad Software, La Jolla, CA). Linear regression analysis was performed on βLAC time points to determine the slope, thus the rate of reaction, for comparison. Furthermore, the slope was also used to determine the degree of dopamine uptake in the dopamine uptake assays. Non-linear regression, fitting to the log(agonist) vs. response and log(inhibitor) vs. response model curve, was used to determine dose-response relationships of surface expression and uptake assays, respectively. One-way ANOVA with Dunnett’s post hoc-test was used for the β-lactamase assay and one-way ANOVA with Bonferroni correction was used for western blot analysis.
Among these were RTI-1, RTI-2, RTI-5, RTI-6, RTI-11, RTI-20, and PAL-1007. […] The EMax values of all the analyzed drugs are included in Figure 1.
The pharmacological chaperone ability of the 15 ibogaine and tryptamine analogs, shown in Figure 3, were measured using the βlac surface expression assay. HEK cells expressing YFP-HA-βlac-DAT were incubated overnight with these compounds at concentrations varying by log and half-log dilutions, starting at 100 μM final concentration. […] Furthermore, it was important to determine whether the β-carboline analogs could also elicit a chaperone effect because they are not classified as DAT ligands ([Cao et al., 2007]). […] Removing the nitrogen from the ring reduced efficacy as observed with frovatriptan (103 ± 1.4%). […] Evodiamine (54 ± 1.7%) had no chaperone ability and caused a substantial reduction in the surface expression of DAT. Dose-response curves were generated to assess the pharmacological chaperone potencies of select compounds (Figure 4).

Sequence of YFP-HA-βlac-DAT (Q01959 1-171 limits assumed): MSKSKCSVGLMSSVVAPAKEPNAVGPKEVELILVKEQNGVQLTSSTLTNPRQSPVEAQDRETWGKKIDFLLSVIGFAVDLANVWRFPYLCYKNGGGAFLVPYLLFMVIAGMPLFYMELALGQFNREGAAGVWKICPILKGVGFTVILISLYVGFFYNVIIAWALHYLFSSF
Sequence of YFP-HA-βlac-DAT (Q01959 237-620 limits assumed): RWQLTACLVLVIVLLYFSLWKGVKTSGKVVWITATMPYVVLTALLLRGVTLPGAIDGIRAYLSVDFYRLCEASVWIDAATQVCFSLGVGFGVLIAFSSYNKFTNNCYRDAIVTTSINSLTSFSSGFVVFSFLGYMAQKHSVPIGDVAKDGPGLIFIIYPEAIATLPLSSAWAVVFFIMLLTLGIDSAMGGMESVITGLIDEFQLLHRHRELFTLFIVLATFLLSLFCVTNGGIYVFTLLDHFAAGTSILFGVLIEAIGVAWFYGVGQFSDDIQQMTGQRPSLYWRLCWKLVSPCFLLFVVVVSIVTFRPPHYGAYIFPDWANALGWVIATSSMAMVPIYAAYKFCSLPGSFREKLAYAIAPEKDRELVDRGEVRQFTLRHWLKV

CCC1CC2CC3c4[nH]c5ccc(O)cc5c4CCN(C2)C13 (stereo not shown) [Noribogaine, reference compound]
Emax: 251 ± 17.8%

Source: PMC9124866, “Structure-Activity Relationships of Dopamine Transporter Pharmacological Chaperones” (Frontiers in Cellular Neuroscience, 2022)
